Laboratory results from US12486489B2, “Culture medium for testing drug resistance of H.pylori as well as preparation method and use thereof” (priority 2022, dated 2025).
Where two headings read alike, the source gives them in different places.

Assays:
H. pylori = experiment: Verification of resistance breakpoint: growth of laboratory strains on Columbia solid culture medium with added antibiotics, 72 hours; type: cell-based, Helicobacter pylori
Procedure: The plates are cooled and inverted for approximately 10 mL/piece, marked properly for the subsequent use.
(2) Preparation of bacterial solution: H. pylori grown in logarithmic phase on a solid plate is taken to prepare a bacterial suspension by using BHI. The concentration OD600 is adjusted to 0.3 (1×10^8 CFU/mL), diluted 10 times for the subsequent use.
(3) Inoculation of bacterial solution: 10 μL of bacterial solution is taken and added to Columbia culture medium and the results are determined after cultivating for 72 hours.
(4) Result determination: the minimum drug concentration for no growth of bacteria on the plate is the minimum inhibitory concentration of the bacteria against the drug.

[1] = tested on: clinical H. pylori strain; experiment: MIC of clinical H. pylori strains by micro dilution method; type: cell-based; conditions: Helicobacter pylori, 72 h, approximately 1.0×10^6 CFU/mL per well, 72 hours, read-out: MIC
Procedure: The characteristic culture media (A, B, C, D, E) are cultivated at a constant temperature of 37° C. for 36 hours in a three gas incubator. The characteristic culture media are removed and placed in a natural environment for 30 minutes to observe whether there are discolorations at the point of the culture medium where the specimen is dropped in. […] Another 100 μL of the specimen is taken and coated on Columbia solid culture medium and cultivated in a three gas incubator at a constant temperature of 37° C. for 3 days to 5 days. The number of colonies on the plate is counted to determine the initial inoculation amount. The micro dilution method is adopted to test the MIC of clinical specimen H. pylori, the test is meaningful only when there is no bacterial growth in the negative control well without bacteria and there is bacterial growth in the positive well with bacteria but without antibiotics.
H. pylori single colony grown on Colombian culture medium is taken (which is confirmed as H. pylori by urease, oxidase, catalase, and PCR testing of CagA gene, as illustrated in FIG. 13) and the bacteria are increased. During the preparation of MIC plates and bacterial solution, H. pylori with logarithmic growth phase is taken to prepare a bacterial suspension by using BHI. The concentration OD600 is adjusted to 0.3 (1×10^8 CFU/mL, diluted 10 times, 10 μL is taken and added to wells 1-8 (with a bacterial solution concentration of approximately 1.0×10^6 CFU/mL per well, cultivated for 72 hours to determine the results.

Compound: C[C@H]1COc2c(N3CCN(C)CC3)c(F)cc3c(=O)c(C(=O)O)cn1c23 [Levofloxacin, levofloxacin]
- optimal concentration for adding antibiotics (H. pylori; conclusion of breakpoint verification): 0.5 µg/mL
- growth of bacterial (H. pylori; strain 159, antibiotic 0.25 μg/mL): +
- growth of bacterial (H. pylori; strain 159, antibiotic 0.5 μg/mL): +
- growth of bacterial (H. pylori; strain 159, antibiotic 1 μg/mL): −
- growth of bacterial (H. pylori; strain 161, antibiotic 0.25 μg/mL): +
- growth of bacterial (H. pylori; strain 161, antibiotic 0.5 μg/mL): +
- growth of bacterial (H. pylori; strain 161, antibiotic 1 μg/mL): −
- growth of bacterial (H. pylori; strain 162, antibiotic 0.25 μg/mL): +
- growth of bacterial (H. pylori; strain 162, antibiotic 0.5 μg/mL): +
- growth of bacterial (H. pylori; strain 162, antibiotic 1 μg/mL): −
- growth of bacterial (H. pylori; strain 163, antibiotic 0.25 μg/mL): +
- growth of bacterial (H. pylori; strain 163, antibiotic 0.5 μg/mL): +
- growth of bacterial (H. pylori; strain 163, antibiotic 1 μg/mL): −
- growth of bacterial (H. pylori; strain 286, antibiotic 0.25 μg/mL): +
- growth of bacterial (H. pylori; strain 286, antibiotic 0.5 μg/mL): +
- growth of bacterial (H. pylori; strain 286, antibiotic 1 μg/mL): −
- growth of bacterial (H. pylori; strain 287, antibiotic 0.25 μg/mL): +
- growth of bacterial (H. pylori; strain 287, antibiotic 0.5 μg/mL): +
- growth of bacterial (H. pylori; strain 287, antibiotic 1 μg/mL): −
- growth of bacterial (H. pylori; strain 289, antibiotic 0.25 μg/mL): +
- growth of bacterial (H. pylori; strain 289, antibiotic 0.5 μg/mL): +
- growth of bacterial (H. pylori; strain 289, antibiotic 1 μg/mL): +
- growth of bacterial (H. pylori; strain 290, antibiotic 0.25 μg/mL): +
- growth of bacterial (H. pylori; strain 290, antibiotic 0.5 μg/mL): +
- growth of bacterial (H. pylori; strain 290, antibiotic 1 μg/mL): +
- growth of bacterial (H. pylori; strain 26695, antibiotic 0.25 μg/mL): −
- growth of bacterial (H. pylori; strain 26695, antibiotic 0.5 μg/mL): −
- growth of bacterial (H. pylori; strain 26695, antibiotic 1 μg/mL): −
- growth of bacterial (H. pylori; strain G27, antibiotic 0.25 μg/mL): +
- growth of bacterial (H. pylori; strain G27, antibiotic 0.5 μg/mL): −
- growth of bacterial (H. pylori; strain G27, antibiotic 1 μg/mL): −
- MIC ([1]; clinical strain FY-31): 16 µg/mL
- MIC ([1]; clinical strain FY-43): 1 µg/mL
- MIC ([1]; clinical strain FY-47): 0.5 µg/mL
- MIC ([1]; clinical strain FY-52): 0.25 µg/mL
